In US8455497B2, “Inhibitors of aspartyl protease” (Vertex Pharmaceuticals Incorporated, priority 1999, dated 2013):
Read-outs that look alike come from different tables or passages of the source.

What was measured:
[1] = tested on: D545701-14 multi protease inhibitor resistant virus; assay: Anti-viral activity against resistant virus D545701-14 in MT4 cells; format: cell-based, HIV-1
HIV-1 (strain IIIB) = assay: Antiviral activity assay in MT4 cells (propidium iodide based); format: cell-based; settings: wild type HIV-1 virus, MT4 cells, read-out: Wildtype virus - IC50
How it was run: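 MT4 cells infected with HIV-1 IIIB (MOI 100×TCID50, 1 hr, 37°C), diluted 6-fold into wells with serially diluted compound, incubated 5 days. Cells lysed with Nonidet-40; DNA content per well estimated by propidium iodide staining as the viability read-out, with mock-infected controls.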

[2] = tested on: EP13 multi protease inhibitor resistant virus; assay: Anti-viral activity against resistant virus EP13 in MT4 cells; format: cell-based, HIV-1
How it was run: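 MT4 cells infected for 1 h at 37 °C, MOI 100×TCID50, then diluted 6-fold onto pre-diluted compound and cultured 5 days (5% CO2). Viable-cell DNA content estimated by propidium iodide. EP13 carries protease mutations M46I, L63P, A71V, V82F/L, I84V, no RT mutations.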

[3] = Human immunodeficiency virus 1, MT4, read-out: D545701-14 mutant - IC50, D545701-14 multi protease inhibitor resistant virus, MT4 cells
[4] = Human immunodeficiency virus 1, IIIB
[5] = Human immunodeficiency virus 1, MT4, read-out: EP13 mutant IC50, EP13 multi protease inhibitor resistant virus, MT4 cells

Row | Compound | IC50 [1, 3] | IC50 (HIV-1 (strain IIIB); [4]) | IC50 [2, 5] | IC50 ([1]; Human immunodeficiency virus 1, MT4, read-out: D545701-14 mutant - IC50) | IC50 ([2]; Human immunodeficiency virus 1, MT4, read-out: EP13 mutant IC50) | IC50 ([1]; D545701-14 multi protease inhibitor resistant virus, MT4 cells, read-out: D545701-14 mutant - IC50) | IC50 (HIV-1 (strain IIIB)) | IC50 ([2]; EP13 multi protease inhibitor resistant virus, MT4 cells, read-out: EP13 mutant IC50)
1 | CCOC(=O)COc1ccc(C[C@H](NC(=O)O[C@H]2CO[C@H]3OCC[C@H]32)[C@H](O)CN(CC(C)C)S(=O)(=O)c2ccc3c(c2)OCO3)cc1 [Compound 326, Ethyl (4-{(2S,3R)-2-({[(3R,3aS,6aR)-hexahydrofuro[2,3-b]furan-3-yloxy]carbonyl}amino)-4-[(1,3-benzodioxol-5-ylsulfonyl)(isobutyl)amino]-3-hydroxybutyl}phenoxy) acetate] | 10 to 100 nM | 1 to 10 nM | 10 to 100 nM | – | – | – | – | –
2 | CC(C)CN(C[C@@H](O)[C@H](Cc1ccc(OCCCNc2cc[nH]n2)cc1)NC(=O)OC1CO[C@H]2OCC[C@@H]12)S(=O)(=O)c1ccc2c(c1)OCO2 (stereo in doubt) [Compound 281, (3R,3aS,6aR)-hexahydrofuro[2,3-b]furan-3-yl (1S,2R)-3-[(1,3-benzodioxol-5-ylsulfonyl)(isobutyl)amino]-2-hydroxy-1-{4-[3-(1H-pyrazol-3-ylamino)propoxy]benzyl}propylcarbamate] | 1 to 10 nM | 1 to 10 nM | 1 to 10 nM | – | – | – | – | –
3 | CC(C)CN(C[C@@H](O)[C@H](Cc1ccc(OCc2ccc(-c3ccccc3C#N)cc2)cc1)NC(=O)O[C@H]1CO[C@H]2OCC[C@H]21)S(=O)(=O)c1ccc2c(c1)OCO2 [Compound 392, (3R,3aS,6aR)-hexahydrofuro[2,3-b]furan-3-yl (1S,2R)-3-[(1,3-benzodioxol-5-ylsulfonyl)(isobutyl)amino]-1-{4-[(2′-cyano[1,1-biphenyl]-4-yl)methoxy]benzyl}-2-hydroxypropylcarbamate] | 1 to 10 nM | 1 to 10 nM | 1 to 10 nM | – | – | – | – | –
4 | CC(C)CN(C[C@@H](O)[C@H](Cc1ccc(OCCCC(F)(F)F)cc1)NC(=O)O[C@H]1CO[C@H]2OCC[C@H]21)S(=O)(=O)c1ccc2c(c1)OCCO2 [Compound 204, (3R,3aS,6aR)-hexahydrofuro[2,3-b]furan-3-yl (1S,2R)-3-[(2,3-dihydro-1,4-benzodioxin-6-ylsulfonyl)(isobutyl)amino]-2-hydroxy-1-[4-(4,4,4-trifluorobutoxy)benzyl]propylcarbamate] | 1 to 10 nM | 1 to 10 nM | 1 to 10 nM | – | – | – | – | –
5 | CNC(=O)NCCOc1ccc(C[C@H](NC(=O)O[C@H]2CO[C@H]3OCC[C@H]32)[C@H](O)CN(CC(C)C)S(=O)(=O)c2ccc3c(c2)OCO3)cc1 [Compound 358, (3R,3aS,6aR)hexahydrofuro[2,3-b]furan-3-yl (1S,2R)-3-[(1,3-benzodioxol-5-ylsulfonyl)(isobutyl)amino]-2-hydroxy-1-[4-(2-[([methylamino]carbonyl)amino]ethoxy)benzyl]propylcarbamate] | – | 10 to 100 nM | – | 10 to 100 nM | 10 to 100 nM | – | – | –
6 | CC(C)CN(C[C@@H](O)[C@H](Cc1ccc(OCCCNc2ccc(C(F)(F)F)cn2)cc1)NC(=O)O[C@H]1CO[C@H]2OCC[C@H]21)S(=O)(=O)c1ccc2c(c1)OCO2 [Compound 272, (3R,3aS,6aR)-hexahydrofuro[2,3-b]furan-3-yl (1S,2R)-3-[(1,3-benzodioxol-5-ylsulfonyl)(isobutyl)amino]-2-hydroxy-1-[4-(3-{[5-(trifluoromethyl)-2-pyridinyl]amino}propoxy)benzyl]propylcarbamate] | 1 to 10 nM | 1 to 10 nM | 1 to 10 nM | – | – | – | – | –
7 | CC(=O)Oc1ccc(S(=O)(=O)N(CC(C)C)C[C@@H](O)[C@H](Cc2ccc(OCc3ccccn3)cc2)NC(=O)O[C@H]2COC3OCC[C@H]32)cc1C (stereo partly drawn) [Compound 294] | 1 to 10 nM | 1 to 10 nM | 1 to 10 nM | – | – | – | – | –
8 | Cc1nc(COc2ccc(C[C@H](NC(=O)O[C@H]3CO[C@H]4OCC[C@H]43)[C@H](O)CN(CC(C)C)S(=O)(=O)c3ccc4c(c3)OCO4)cc2)cs1 [Compound 368] | – | – | – | – | – | 1 to 10 nM | < 1 nM | < 1 nM
